Assay results reported in ChEMBL document CHEMBL1157133, “Design, synthesis, and interaction study of quinazoline-2(1H)-thione derivatives as novel potential Bcl-xL inhibitors” (J Med Chem, 2010).
Activity calls are given as the source filed them. The rule behind the calls is not given here.

Tests used:
[1] = system: K562; test: Induction of apoptosis in human K562 cells assessed reduction of mitochondrial membrane potential after 24 hrs using JC1 fluorescent dye
[2] = system: HepG2; test: cells; conditions: Homo sapiens, HepG2, 48 h
Description: Cytotoxicity against human HepG2 cells after 48 hrs by MTT assay

[3] = molecular target: T1, Bcl-2-like protein 1 (Homo sapiens, UniProt Q07817); test: Inhibition of human Bcl-XL
[4] = system: PC-3; test: Cytotoxicity against human PC3 cells after 48 hrs by MTT assay; type: functional, cell-based; conditions: for EC50: PC-3, 48 h
[5] = system: A2780; test: cells; conditions: Homo sapiens, A2780, 48 h
Description: Cytotoxicity against human A2780 cells after 48 hrs by MTT assay

[6] = molecular target: Bcl-2-like protein 1 (Homo sapiens, UniProt Q07817, Y195A); test: Binding affinity to human Bcl-XL Y195A mutant by surface plasma resonance based biosensor system
[7] = molecular target: T1, Bcl-2-like protein 1; test: Binding affinity to human Bcl-XL by surface plasma resonance based biosensor system
[8] = molecular target: T1, Bcl-2-like protein 1; test: Displacement of FITC-labeled BH3 peptide from human Bcl-XL after 1 hr by fluorescence polarization assay
[9] = molecular target: Induced myeloid leukemia cell differentiation protein Mcl-1 homolog (Mus musculus, UniProt P97287); test: Displacement of FITC-labeled BH3 peptide from GST-tagged mouse Mcl1 after 1 hr by fluorescence polarization assay
[10] = molecular target: Bcl-2-like protein 1 (Homo sapiens, UniProt Q07817, E96A); test: Binding affinity to human Bcl-XL E96A mutant by surface plasma resonance based biosensor system
[11] = system: K562; test: Induction of apoptosis in human K562 cells assessed activation of caspase3 at 25 uM after 48 hrs by immunoblotting; type: functional, cell-based
[12] = Cytotoxicity against human Bel7404 cells after 48 hrs by MTT assay; conditions: BEL-7404, 48 h
[13] = system: K562; test: Induction of apoptosis in human K562 cells assessed activation of caspase9 at 25 uM after 48 hrs by immunoblotting; type: functional, cell-based
[14] = system: OVCAR-3; test: Cytotoxicity against human OVCAR-3 cells after 48 hrs by MTT assay; conditions: OVCAR-3, 48 h
[15] = system: K562; test: Induction of apoptosis in human K562 cells assessed as chromatin condensation; type: functional, cell-based
[16] = system: K562; test: Induction of apoptosis in human K562 cells assessed as increase of reactive oxygen species level at 25 uM after 48 hrs using DCFH-DA fluorescent dye relative to control; type: functional
[17] = system: K562; test: cells; conditions: Homo sapiens, K562, 48 h
Description: Cytotoxicity against human K562 cells after 48 hrs by MTT assay

[18] = molecular target: Apoptosis regulator Bcl-2 (Homo sapiens, UniProt P10415); test: Displacement of FITC labeled BH3 peptide from His-tagged human BCL2 after 1 hr by fluorescence polarization assay
[19] = molecular target: Bcl-2-like protein 1 (Homo sapiens, UniProt Q07817, Y101A); test: Binding affinity to human Bcl-XL Y101A mutant by surface plasma resonance based biosensor system
Sequence of Bcl-2-like protein 1 (Homo sapiens, UniProt Q07817, Y101A) (Q07817 whole entry Y101A): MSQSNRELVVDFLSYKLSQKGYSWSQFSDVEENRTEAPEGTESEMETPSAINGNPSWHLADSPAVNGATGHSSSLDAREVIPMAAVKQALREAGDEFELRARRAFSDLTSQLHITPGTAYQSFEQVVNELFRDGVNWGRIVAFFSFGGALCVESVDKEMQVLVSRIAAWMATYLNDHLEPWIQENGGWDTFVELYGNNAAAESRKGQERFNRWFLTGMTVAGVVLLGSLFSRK

Sequence of Induced myeloid leukemia cell differentiation protein Mcl-1 homolog (P97287 whole entry): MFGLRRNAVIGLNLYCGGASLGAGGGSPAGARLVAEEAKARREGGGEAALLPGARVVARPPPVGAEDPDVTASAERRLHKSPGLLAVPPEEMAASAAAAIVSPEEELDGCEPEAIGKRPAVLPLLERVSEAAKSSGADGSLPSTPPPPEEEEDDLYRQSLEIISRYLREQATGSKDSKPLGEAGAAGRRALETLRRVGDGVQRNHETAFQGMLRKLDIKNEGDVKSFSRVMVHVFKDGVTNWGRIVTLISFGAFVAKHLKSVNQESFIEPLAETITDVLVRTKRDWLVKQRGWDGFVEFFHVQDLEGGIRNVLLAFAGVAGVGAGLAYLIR
Sequence of Apoptosis regulator Bcl-2 (P10415 whole entry): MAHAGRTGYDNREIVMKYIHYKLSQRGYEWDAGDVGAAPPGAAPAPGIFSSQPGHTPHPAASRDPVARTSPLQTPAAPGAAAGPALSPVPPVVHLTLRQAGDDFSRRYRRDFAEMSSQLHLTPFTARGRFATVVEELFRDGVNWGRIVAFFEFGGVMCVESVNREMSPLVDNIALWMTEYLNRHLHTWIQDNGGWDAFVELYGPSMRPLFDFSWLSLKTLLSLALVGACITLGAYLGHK
T1 sequence (Q07817 whole entry): as the sequence (Q07817 whole entry Y101A) above, with A101Y counted along it
Sequence of Bcl-2-like protein 1 (Homo sapiens, UniProt Q07817, Y195A) (Q07817 whole entry Y195A): as the sequence (Q07817 whole entry Y101A) above, with A101Y, Y195A counted along it
Sequence of Bcl-2-like protein 1 (Homo sapiens, UniProt Q07817, E96A) (Q07817 whole entry E96A): as the sequence (Q07817 whole entry Y101A) above, with E96A, A101Y counted along it

SMILES: COc1ccccc1C1C2=C(N=c3s/c(=C\c4cccc(OCC(=O)O)c4)c(=O)n31)c1ccccc1CC2 (stereo unspecified)
- Activity [1]: Dose-dependent effect
- EC50 [2]: 12.7 µM
- IC50 [3]: 3.4 µM
- Activity [4]: Dose-dependent effect
- EC50 [4]: 37.6 µM
- EC50 [5]: 4.57 µM
- Kd [6]: 904 µM
- Kd [7]: 9.5 µM
- IC50 [8]: 3.4 µM
- IC50 [9]: 6.4 µM
- Kd [10]: 34.8 µM
- Activity [11]: Active
- EC50 [12]: 7.9 µM
- Activity [13]: Active
- EC50 [14]: 1.54 µM
- Activity [15]: Active
- fold change (FC) [16]: 2.7
- EC50 [17]: 50.9 µM
- IC50 [18]: 3.1 µM
- Kd [19]: 6.94 µM

SMILES: COc1ccc(C2C3=C(N=c4s/c(=C\c5ccc(-c6cccc(C(=O)O)c6)o5)c(=O)n42)c2ccccc2CC3)cc1 (stereo unspecified)
- EC50 [2]: > 100 µM
- IC50 [3]: 6.9 µM
- Activity [4]: Dose-dependent effect
- EC50 [4]: 12 µM
- EC50 [5]: 13.1 µM
- IC50 [8]: 6.9 µM
- IC50 [9]: 18.6 µM
- EC50 [12]: 24.7 µM
- EC50 [14]: 7.21 µM
- EC50 [17]: 72.3 µM
- IC50 [18]: 8 µM
- Kd [19]: > 1000 µM

SMILES: COc1ccc(C2C3=C(N=c4s/c(=C\c5ccc(OCc6cccc(C(=O)O)c6)c(OC)c5)c(=O)n42)c2ccccc2CC3)cc1 (stereo unspecified)
- EC50 [2]: 9.9 µM
- IC50 [3]: 17.4 µM
- Activity [4]: Dose-dependent effect
- EC50 [4]: > 100 µM
- EC50 [5]: 3.03 µM
- IC50 [8]: 17.4 µM
- IC50 [9]: 34.4 µM
- EC50 [12]: 7.2 µM
- EC50 [14]: 11.7 µM
- EC50 [17]: 6.42 µM
- IC50 [18]: 19.4 µM
- Kd [19]: > 1000 µM

SMILES: COc1cccc(C2C3=C(N=c4s/c(=C\c5ccc(-c6cccc(C(=O)O)c6)o5)c(=O)n42)c2ccccc2CC3)c1 (stereo unspecified)
- EC50 [2]: > 100 µM
- IC50 [3]: 7.3 µM
- Activity [4]: Dose-dependent effect
- EC50 [4]: 29.5 µM
- EC50 [5]: 13.8 µM
- IC50 [8]: 7.3 µM
- IC50 [9]: 19.2 µM
- EC50 [12]: > 100 µM
- EC50 [14]: 7.91 µM
- EC50 [17]: > 100 µM
- IC50 [18]: 11.1 µM

SMILES: O=C(O)c1cccc(-c2ccc(/C=c3\sc4n(c3=O)C(c3cccc(F)c3)C3=C(N=4)c4ccccc4CC3)o2)c1 (stereo unspecified)
- EC50 [2]: 15.4 µM
- IC50 [3]: 3 µM
- Activity [4]: Dose-dependent effect
- EC50 [4]: > 100 µM
- EC50 [5]: 5.81 µM
- IC50 [8]: 3 µM
- IC50 [9]: 8.6 µM
- EC50 [12]: 51.3 µM
- EC50 [14]: 12 µM
- EC50 [17]: > 100 µM
- IC50 [18]: 3.2 µM
